Peptide text beside a SMILES is read from it.
What was measured:
[1] = molecular target: T1, rFTase (Rattus norvegicus, UniProt Q02293+Q04631); assay: Mass spectrometry-based farnesylation assay (rFTase); type: biochemical; conditions: each peptide 18 h at 37°C with rFTase and FPP, LC-ESI-MS
T1 construct: purchased Jena Bioscience PR-102
Method: […] CaaX‐1 or scrambled control was incubated with 50‐nM recombinantly expressed hFTase or rFTase (Jena Bioscience, Cat#PR‐102) and 10‐μM farnesyl pyrophosphate (FPP) in reaction buffer (50‐mM Tris HCl pH 7.5, 5‐mM DTT, 5‐mM MgCl2, 10‐μM ZnCl2, and 0.2% n‐octyl‐beta‐D‐glucopyranoside) at 37°C for 18 h. Afterwards, the reaction mixture was desalted via C18 ZipTips (Merck Millipore). For this, ZipTips were washed with ACN and equilibrated in 0.1% FA in H2O. Then, the column was loaded with the reaction solution and subsequently washed with 0.1% FA in H2O and 5% MeOH in H2O each supplemented with 0.1% FA. Elution was performed using 50% ACN with 0.1% FA, and the eluted solution was analyzed by RP‐HPLC using a linear gradient of 10%–60% ACN in H2O with 0.1% FA or TFA using a flow rate of 0.6 or 1.0 mL/min, respectively, and by ESI‐MS analysis (LTQ‐XL, Thermo Scientific, Waltham, Massachusetts, USA).

[2] = test system: HeLa cells; assay: Resazurin-based cytotoxicity assay; type: cell-based; conditions: serum-free medium, 24 h, triplicate (n = 3)
Method: Cytotoxicity of the peptides to HeLa cells were investigated using a resazurin‐based cytotoxicity assay (Sigma Aldrich). For this, 14,000 HeLa cells were seeded in a 96‐well plate and grown in complete medium at 37°C to 80%–90% subconfluency. Cells were treated with different peptide dilutions in serum‐free medium at 37°C for 24 h. Untreated cells served as negative control and cells treated with 70% ethanol for 10 min as positive control. Cells were washed with PBS and subsequently incubated with a 10% resazurin solution in serum‐free medium for ~1 h. To determine the viability of the cells, the fluorescence was measured at 595 nm after excitation at 550 nm using a Tecan infinite M200 plate reader.

Row | Compound | farnesylation by rFTase (CaaX-1 versus scrambled controls) [1] | cytotoxicity to HeLa cells at 100 μM [2]
1 | CC[C@H](C)[C@H](NC(=O)[C@H](CS)NC(=O)[C@H](CCCCN)NC(=O)[C@H](CCCCN)NC(=O)[C@H](CC(N)=O)NC(=O)[C@H](CCCNC(=N)N)NC(=O)[C@H](Cc1ccccc1)NC(=O)[C@H](CCCCN)NC(=O)[C@H](CCCNC(=N)N)NC(=O)[C@H](CC(C)C)NC(=O)[C@H](CCCNC(=N)N)NC(=O)[C@H](CCCCN)NC(=O)[C@H](CCCNC(=N)N)NC(=O)[C@H](CC(C)C)NC(=O)CN)C(=O)N[C@@H](CCCCN)C(=O)N[C@H](C(=O)N[C@@H](CCSC)C(=O)N[C@H](C(=O)N[C@@H](CO)C(=O)O)[C@@H](C)O)C(C)C [CaaX‐1hscr] (H-GLRKRLRKFRNKKCIKVMTS-OH) | lack of catalytic conversion | slight toxicity
2 | CC[C@H](C)[C@H](N)C(=O)N[C@H](C(=O)N[C@@H](Cc1ccccc1)C(=O)N[C@@H](CCCNC(=N)N)C(=O)N[C@@H](CCCCN)C(=O)N[C@@H](CCCCN)C(=O)N[C@@H](CC(C)C)C(=O)N[C@@H](CCCNC(=N)N)C(=O)N[C@@H](CCCCN)C(=O)N[C@@H](CCCCN)C(=O)N[C@@H](CS)C(=O)N[C@@H](CO)C(=O)N[C@@H](CCCCN)C(=O)NCC(=O)N[C@@H](CC(C)C)C(=O)N[C@H](C(=O)N[C@@H](CCCNC(=N)N)C(=O)N[C@@H](CCCNC(=N)N)C(=O)N[C@@H](CC(N)=O)C(=O)N[C@@H](CCSC)C(=O)O)C(C)C)[C@@H](C)O [scrCaaX‐1] (H-ITFRKKLRKKCSKGLVRRNM-OH) | lack of catalytic conversion | –

Reference: paper PMC11893521, “Examining Farnesyltransferase Interaction With Cell‐Permeable CaaX Peptides and the Role of the CaaX Motif in Biological Activity” (Journal of Peptide Science, 2025)
